Results as given in article PMC6117091, “The C. difficile clnRAB operon initiates adaptations to the host environment in response to LL-37” (PLoS Pathogens, 2018).

System: gene expression in C. difficile 630Δerm
Assay: RNA-seq, genes differentially expressed in LL-37
Conditions: 2 µg/ml LL-37, BHIS

## CC[C@H](C)[C@H](NC(=O)[C@H](CCCCN)NC(=O)[C@H](CCC(=O)O)NC(=O)[C@H](CCCCN)NC(=O)[C@H](CO)NC(=O)[C@H](CCCCN)NC(=O)[C@H](CCCNC(=N)N)NC(=O)[C@H](Cc1ccccc1)NC(=O)[C@H](Cc1ccccc1)NC(=O)[C@H](CC(=O)O)NC(=O)CNC(=O)[C@H](CC(C)C)NC(=O)[C@@H](N)CC(C)C)C(=O)NCC(=O)N[C@@H](CCCCN)C(=O)N[C@@H](CCC(=O)O)C(=O)N[C@@H](Cc1ccccc1)C(=O)N[C@@H](CCCCN)C(=O)N[C@@H](CCCNC(=N)N)C(=O)N[C@H](C(=O)N[C@H](C(=O)N[C@@H](CCC(N)=O)C(=O)N[C@@H](CCCNC(=N)N)C(=O)N[C@H](C(=O)N[C@@H](CCCCN)C(=O)N[C@@H](CC(=O)O)C(=O)N[C@@H](Cc1ccccc1)C(=O)N[C@@H](CC(C)C)C(=O)N[C@@H](CCCNC(=N)N)C(=O)N[C@@H](CC(N)=O)C(=O)N[C@@H](CC(C)C)C(=O)N[C@H](C(=O)N1CCC[C@H]1C(=O)N[C@@H](CCCNC(=N)N)C(=O)N[C@H](C(=O)N[C@@H](CCC(=O)O)C(=O)N[C@@H](CO)C(=O)O)[C@@H](C)O)C(C)C)[C@@H](C)CC)C(C)C)[C@@H](C)CC [LL-37]
  23S_rRNA fold change in LL-37: 0.27
  CD630_00470 (ispD) fold change in LL-37: 0.48
  CD630_01060 (cwlD) fold change in LL-37: 0.43
  CD630_01250 fold change in LL-37: 0.44
  CD630_01631 fold change in LL-37: 0.22
  CD630_01930 (groS) fold change in LL-37: 0.46
  CD630_02910 fold change in LL-37: 3.25
  CD630_03140 fold change in LL-37: 0.41
  CD630_03240 (cbiM) fold change in LL-37: 0.42
  CD630_03250 (cbiN) fold change in LL-37: 0.50
  CD630_03260 (cbiQ1) fold change in LL-37: 0.41
  CD630_03270 (cbiO) fold change in LL-37: 0.40
  CD630_03580 fold change in LL-37: 3.38
  CD630_03830 fold change in LL-37: 2.58
  CD630_03901 fold change in LL-37: 0.43
  CD630_04090 fold change in LL-37: 0.44
  CD630_04440 (ortB) fold change in LL-37: 2.09
  CD630_04670 fold change in LL-37: 3.43
  CD630_04780 (spaF) fold change in LL-37: 3.43
  CD630_04800 (spaG) fold change in LL-37: 2.29
  CD630_04890 fold change in LL-37: 2.26
  CD630_04900 fold change in LL-37: 4.13
  CD630_04960 fold change in LL-37: 4.13
  CD630_04970 fold change in LL-37: 3.86
  CD630_04980 fold change in LL-37: 4.13
  CD630_05000 fold change in LL-37: 3.61
  CD630_05060 fold change in LL-37: 3.54
  CD630_05100 fold change in LL-37: 3.07
  CD630_05101 fold change in LL-37: 3.31
  CD630_05102 fold change in LL-37: 3.35
  CD630_05103 fold change in LL-37: 3.27
  CD630_05490 fold change in LL-37: 4.74
  CD630_05500 fold change in LL-37: 5.52
  CD630_05670 fold change in LL-37: 0.44
  CD630_05770 fold change in LL-37: 2.96
  CD630_05780 fold change in LL-37: 0.47
  CD630_05790 fold change in LL-37: 0.40
  CD630_06140 fold change in LL-37: 0.43
  CD630_06240 fold change in LL-37: 0.45
  CD630_07290 (gcvH) fold change in LL-37: 2.23
  CD630_08450 fold change in LL-37: 0.40
  CD630_08530 (oppB) fold change in LL-37: 3.02
  CD630_08570 (oppF) fold change in LL-37: 2.88
  CD630_09080 fold change in LL-37: 0.23
  CD630_09170 fold change in LL-37: 0.45
  CD630_09260 fold change in LL-37: 2.36
  CD630_09340 fold change in LL-37: 0.39
  CD630_09360 fold change in LL-37: 0.28
  CD630_09950 (serA) fold change in LL-37: 0.23
  CD630_09960 fold change in LL-37: 0.24
  CD630_10280 fold change in LL-37: 0.48
  CD630_10540 (bcd2) fold change in LL-37: 2.94
  CD630_10550 (etfB3) fold change in LL-37: 3.07
  CD630_10560 (etfA3) fold change in LL-37: 3.22
  CD630_10570 (crt2) fold change in LL-37: 2.97
  CD630_10580 (hbd) fold change in LL-37: 3.51
  CD630_10590 (thlA1) fold change in LL-37: 3.56
  CD630_10850 fold change in LL-37: 2.17
  CD630_10860 fold change in LL-37: 2.54
  CD630_10980 fold change in LL-37: 2.17
  CD630_11261 fold change in LL-37: 0.42
  CD630_11540 fold change in LL-37: 0.40
  CD630_11710 (etfB4) fold change in LL-37: 0.45
  CD630_12382 fold change in LL-37: 5.60
  CD630_12400 (vanZ) fold change in LL-37: 28.43
  CD630_12700 fold change in LL-37: 0.45
  CD630_13450 fold change in LL-37: 0.46
  CD630_13460 fold change in LL-37: 0.50
  CD630_13610 fold change in LL-37: 0.37
  CD630_13640 fold change in LL-37: 0.40
  CD630_13720 fold change in LL-37: 0.48
  CD630_13900 fold change in LL-37: 2.35
  CD630_14240 fold change in LL-37: 2.97
  CD630_14890 (metN) fold change in LL-37: 0.32
  CD630_14900 (met I) fold change in LL-37: 0.32
  CD630_15100 fold change in LL-37: 2.24
  CD630_15120 (panC) fold change in LL-37: 2.15
  CD630_15470 (hisZ) fold change in LL-37: 2.92
  CD630_15490 (hisC) fold change in LL-37: 2.86
  CD630_15500 (hisB) fold change in LL-37: 3.12
  CD630_15510 (hisH) fold change in LL-37: 3.29
  CD630_15520 (hisA) fold change in LL-37: 2.80
  CD630_15540 (hisI) fold change in LL-37: 3.10
  CD630_15560 fold change in LL-37: 2.16
  CD630_15660 (ilvB) fold change in LL-37: 2.01
  CD630_15800 (hom2) fold change in LL-37: 0.49
  CD630_16070 fold change in LL-37: 30.25
  CD630_16090 fold change in LL-37: 30.62
  CD630_16100 fold change in LL-37: 64.45
  CD630_16110 fold change in LL-37: 34.77
  CD630_16120 fold change in LL-37: 3.18
  CD630_16130 (cotA) fold change in LL-37: 2.18
  CD630_16170 (clnR) fold change in LL-37: 186.82
  CD630_16180 (clnA) fold change in LL-37: 202.99
  CD630_16190 (clnB) fold change in LL-37: 192.16
  CD630_16200 fold change in LL-37: 2.15
  CD630_16310 (sodA) fold change in LL-37: 2.59
  CD630_16590 fold change in LL-37: 2.69
  CD630_16632 fold change in LL-37: 0.32
  CD630_16740 fold change in LL-37: 2.47
  CD630_16990 (ribE) fold change in LL-37: 4.23
  CD630_17000 (ribD) fold change in LL-37: 3.65
  CD630_17021 (thiS) fold change in LL-37: 2.41
  CD630_17151 fold change in LL-37: 2.24
  CD630_17170 fold change in LL-37: 2.07
  CD630_17452 fold change in LL-37: 0.34
  CD630_17540 fold change in LL-37: 0.42
  CD630_17880 fold change in LL-37: 2.48
  CD630_18020 fold change in LL-37: 3.05
  CD630_18270 fold change in LL-37: 0.47
  CD630_18470 fold change in LL-37: 0.36
  CD630_18860 fold change in LL-37: 0.41
  CD630_18870 (csfU) fold change in LL-37: 5.34
  CD630_18880 (rsiU) fold change in LL-37: 3.69
